# Test results published in a melting point compilation (Tetko et al.; mined from patent text by program, amines drawn as free bases though some values may be those of a salt).
# Non-standard residues stand in square brackets, D forms with d. Residues, ends and D or L forms follow the SMILES beside them. ξ: configuration not given here. *: point of attachment. Boc = CC(C)(C)OC(=O)*; ξA = CC(N)C(=O)O
row,melting point,SMILES
1,223 to 226 °C,O=S1(=O)N=C(NCc2ccccc2)Nc2cc(Cl)sc21
2,191 to 192 °C,CC12CCC(=O)C=C1CCC1C3CC(OCC4CO4)C(O)(C(=O)CO)C3(C)CC(O)C12F (centres undefined)
3,103 to 105 °C,COC(=O)CNC(=O)C(C)NC(=O)CNC(=O)CNC(=O)OC(C)(C)C (centres undefined) (Boc-GG[ξA]G-OMe)
4,93 to 95 °C,OC(CCc1cccnc1)COc1ccc2ccccc2c1 (centres undefined)
5,179 to 181 °C,CCOCc1nc2c(c(C)c(C)n3nnnc23)n1CCNC(=O)C(C)C
6,183 to 185 °C,O=C1CN(S(=O)(=O)c2ccccc2)c2ccccc2N1
7,93.2 °C,O=C(c1cccc(Cl)c1)c1cc(F)nc2ccccc12
8,190 to 192 °C,COC(=O)c1nn(-c2ccccc2)c2c1CCc1cc(Cl)ccc1-2
9,95 °C,CCOC(=O)C=Cc1ccc(OCc2ccccn2)cc1
10,245 to 246 °C,Cc1cc2c(=O)c(N3CCC(O)(c4ccc(F)cc4)CC3)coc2cc1OCc1ccccc1
11,182 to 183 °C,COCCNC(=O)c1ccc(C)c(-n2c(C)cc(OCc3ccccc3CNC(=O)Nc3cc(C(C)(C)C)nn3-c3ccc(Cl)c(O)c3)c(Cl)c2=O)c1
12,129 to 131 °C,O=C(c1cccc(OC(F)(F)F)c1)N1CCc2cc(S(=O)(=O)N3CC(c4ccccc4)NC3=O)ccc21 (centres undefined)
13,64 to 65 °C,CC(C)(C)OC(=O)Nc1cc(N2CCC(OCCO)CC2)c(I)cc1[N+](=O)[O-]
14,218 to 220 °C,COc1c(N2CCC(NC3CC3)C(C)C2)c(F)c(N)c2c(=O)c(C(=O)O)cn(C3CC3)c12 (centres undefined)
15,187 to 188 °C,COC(=O)c1ccc(Cn2nc(CO)c3ccc(C(=O)NCC4CCCC4)cc32)c(OC)c1
16,95 to 96 °C,CCCCc1nc2c(N)nc3ccccc3c2n1CCN1C(=N)NC2CSC(CCCCC(N)=O)C21 (centres undefined)
17,153 to 155 °C,O=C1c2ccccc2C(=O)N1c1ccc(Cl)cn1
18,45 to 50 °C,CCOC(=O)NCCc1cccc(C(=O)C=CN(C)C)c1
19,178 to 180 °C,CNC1=NC2(O)c3ccc(OCC(F)(F)C(F)(F)C(F)(F)F)cc3CC2S1 (centres undefined)
20,64.8 °C,C#CCOc1cc(Oc2ccccc2C)ncn1
21,98 to 100 °C,CS(=O)(=O)c1ccc(-c2cc(C=O)cn2-c2ccc(F)cc2)cc1
22,150 to 158 °C,COC(=O)NC(=O)NS(=O)(=O)c1ccc([N+](=O)[O-])cc1

row,melting point,SMILES
1,115 to 116 °C,COc1ccc(C(NC(=O)c2ccc(F)cc2)c2cccc(Nc3c(OC)c(=O)c3=O)c2)cc1 (centres undefined)
2,100 to 101 °C,CCOc1cc(OCC)cc(-c2cncn2-c2ccc(S(C)(=O)=O)cc2)c1
3,181 to 184 °C,CCOP(=O)(COc1ccc(CO)cc1N)OCC
4,169 to 173 °C,Cc1ccc(NC(=O)Nc2ccc(-c3c(Cc4ccccc4)sc4ncnc(N)c34)cc2)cc1
5,> 250 °C,Cn1nc(-c2cnc(N)nc2-c2ccccc2Br)ccc1=O
6,112 °C,Cn1cncc1C1SCCCS1
7,> 300 °C,O=c1[nH]c2cc(Cl)c(Cl)cc2nc1Cl
8,211 to 212 °C,CC(=O)c1c(C)[nH]c(-c2ccc(F)cc2)c1N
9,> 230 °C,CCOC(=O)c1cn(C2CC2)c2c(F)c(C#Cc3cc(Cc4cnc(N)nc4N)cc(OC)c3OC)c(F)cc2c1=O
10,90 to 92 °C,O=C(O)C(Cc1ccccc1)Oc1c(Br)cc(-c2ccc(-c3c(Cc4ccccc4)oc4ccccc34)cc2)cc1Br (centres undefined)
11,54 to 56 °C,COC1CCC(OS(C)(=O)=O)C(CN=[N+]=[N-])O1 (centres undefined)
12,250 °C,O=C(O)Cc1cc(C(=O)c2ccc(Cl)cc2)ccc1O
13,182 to 184 °C,Cc1oc(-c2ccccc2)nc1CSc1ccc(S(=O)(=O)Nc2ccccc2C(=O)O)cc1
14,189 to 190 °C,Cn1cc(C(=O)NCc2ccc(Cl)cc2)c(=O)c2cc(CN3CC[C@@H](O)C3)oc21
15,260 °C,CC(=O)C1=C(O)C(=C(C)Nc2cc(NS(C)(=O)=O)cc(NS(C)(=O)=O)c2)C(=O)OC1=O
16,194 to 197 °C,COCc1cc(Cl)n2nc(SC)c(S(=O)(=O)c3ccccc3)c2n1
17,120 to 123 °C,N#Cc1cccc(-c2ccccc2O)c1
18,181 to 182 °C,Nc1nnc(C(F)(F)C(Cl)Cl)s1
19,108 °C,O=Cc1ccc(-c2nn(Cc3ccccc3)c3ccccc23)o1
20,78 to 81 °C,Fc1ccc(C(c2ccncc2)C2CCCCC2)cc1 (centres undefined)
21,83 to 85 °C,CCCCCCCCCCC(C)(C)NC(=O)Nc1cc(OC)cc(C(C)(C)C)c1OCOC
22,225 to 226 °C,O=C1c2ccccc2C(=O)N1CCc1c[nH]c2ccc(CNS(=O)(=O)c3ccccc3)cc12

row,melting point,SMILES
1,170 to 172 °C,CCC(=O)c1cnc2c(OCCO)cccc2c1Nc1ccc(F)cc1C
2,130 to 132 °C,CC(C)n1nc(-c2c(OCCN(C)C)nc(N)nc2-c2ccccc2)ccc1=O
3,149 to 151 °C,COc1ccc(Cc2nc3cc(Cl)cc(CC=NO)c3o2)cc1OC1CCCC1
4,138 to 142 °C,CC12CCC(C1)C1(C)Oc3ccc(C(=O)c4ccc(C=O)cc4)cc3C21C (centres undefined)
5,70 to 74 °C,Cc1ccc(C(=O)CC2CCCN(C)C2)cc1 (centres undefined)
6,93 to 95 °C,CCOC(=O)\C=C(C)/C=C/C=C(C)/C=C/C1=C(C)C[C@@H](O)CC1(C)C
7,155 to 158 °C,COC(=O)c1nc(-c2ccc(Cl)c(OC)c2F)nc(N)c1OC
8,> 325 °C,O=c1c2c([nH]c3cn[nH]c13)CCCC2
9,165 to 166 °C,COC(=O)CCc1ccc(S(=O)(=O)c2ccc(NC(=O)c3ccc(Cl)c(Cl)c3)cn2)cc1
10,135 to 137 °C,O=C1C2=C(CCCC2)C(=O)N1c1cc(CO)c(Cl)cc1F
11,208 to 212 °C,CC(C)OC(=O)N1CC(=S)Nc2ccc(-c3cccc(Cl)c3)cc21
12,140 to 142 °C,CS(=O)(=O)c1ccc(-c2c(Cl)c3cccccc-3c2-c2ccccc2)cc1
13,118 to 120 °C,CCOC(=O)CC(C(=O)c1ccc(OC2CCN(C(=O)OC(C)(C)C)CC2)cc1)c1ccccn1 (centres undefined)
14,157 to 158 °C,O=C(c1ccc(F)cc1)C1CCN(CCN(C(=O)c2ccc([N+](=O)[O-])cc2)c2ccccc2C(F)(F)F)CC1
15,143 to 144 °C,CCc1ccc2nc(C)[nH]c2c1N1CC(CI)OC1=O (centres undefined)
16,153 to 155 °C,CCCCCCCCOc1ccc2nc(C(=O)NCC(=O)O)c(O)cc2c1
17,111 to 114 °C,Cc1cc(C(F)(F)F)ccc1NC(=O)C(C)(C)C
18,83 to 84 °C,CC(C)(C)OC(=O)N1CC(Oc2ccc(N)nc2)C1
19,196 °C,Cc1cc(C)cc(N(CCN)Cc2ccc3nc(NCCCN4CCOCC4)n(Cc4nc(C)ccc4O)c3c2)c1
20,193 to 194 °C,O=c1ccc2cc(OC3CCC4(CCNCC4)CC3)ccc2o1
21,240 to 241 °C,CC(C)(C)C(NC(=O)c1cccc(-c2ccccc2)c1)Nc1c(Nc2cccnc2)c(=O)c1=O (centres undefined)
22,125 °C,CCCC1=C(C(=O)OCC)C(c2sccc2C)c2c[nH]nc2N1 (centres undefined)

row,SMILES,melting point
1,COc1cc(OC)c(C2=NC(NC(=O)Nc3cccc(C)c3)C(=O)N(C)c3ccccc32)c(OC)c1 (centres undefined),240 °C
2,CCCCCCCCCCCCCCCC(=O)NC#N,62 to 65 °C
3,O=C(CS(=O)C(c1ccc(F)cc1)c1ccc(F)cc1)NO (centres undefined),90 to 91 °C
